Literature values, collected in patent publication US10195128B2, “Oral care compositions” (Colgate-Palmolive Company, priority 2016, dated 2019).

Conditions: oral or intraperitoneal administration; after consumption

- Time to excretion of glucuronide compounds and sulphate conjugates in urine: ≤ 24 h
SMILES: COc1cc(CCC(C)=O)ccc1O [zingerone, 4-(3-methoxy-4-hydroxyphenyl)-butan-2-one]
